Measurements: patent US20230330254A1 (Regeneron Pharmaceuticals, Inc., priority 2022, published 2023)
Where a SMILES comes first, the peptide text is derived from it. [ ]: non-standard residue; d: D form. The star is where a group is joined. Bip(2'-Et,4'-O(CH2)4NH2) = CCc1cc(OCCCCN)ccc1-c1ccc(C[C@H](N)C(=O)O)cc1; Malonyl(2,2-Me2,histaminyl) = CC(C)(C(=O)NCCc1cnc[nH]1)C(=O)*; Nva(5-(3,5-Me2Ph)) = Cc1cc(C)cc(CCC[C@H](N)C(=O)O)c1; Ala(1H-tetrazol-5-yl) = N[C@@H](Cc1nnn[nH]1)C(=O)O; αMePhe(2-F) = C[C@](N)(Cc1ccccc1F)C(=O)O

What was measured:
HEK293/CRE-Luc cells [1] = assay: Luciferase reporter assay, HEK293/CRE-Luc cells without GLP1R (Example 17); assay type: cell-based, human
Outline: (§1)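 HEK293 cells carrying a CRE-driven firefly luciferase reporter were exposed to 3-fold serial dilutions of payloads or linker-payloads (12 points, 0.2% DMSO final) for 4–6 h, then luminescence was read. EC50 came from a four-parameter logistic fit; S/N is top RLU over untreated wells, and relative potency and S/N are referenced to M2361.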

human GLP1R [2] = molecular target: T1, human GLP1R (Homo sapiens, UniProt P43220); assay: Luciferase reporter assay, HEK293/CRE-Luc/hGLP1R (Example 17); assay type: cell-based; set-up: engineered to express full-length human GLP1R, cynomolgus GLP1R; expressed in transfected cells; host or cells: HEK293/CRE-Luc; settings: HEK293/CRE-Luc/hGLP1R; for EC50: payloads and linker-payloads, experiments A-E, M2361 repeated in each, read-out: EC50
T1 sequence (P43220 24-463): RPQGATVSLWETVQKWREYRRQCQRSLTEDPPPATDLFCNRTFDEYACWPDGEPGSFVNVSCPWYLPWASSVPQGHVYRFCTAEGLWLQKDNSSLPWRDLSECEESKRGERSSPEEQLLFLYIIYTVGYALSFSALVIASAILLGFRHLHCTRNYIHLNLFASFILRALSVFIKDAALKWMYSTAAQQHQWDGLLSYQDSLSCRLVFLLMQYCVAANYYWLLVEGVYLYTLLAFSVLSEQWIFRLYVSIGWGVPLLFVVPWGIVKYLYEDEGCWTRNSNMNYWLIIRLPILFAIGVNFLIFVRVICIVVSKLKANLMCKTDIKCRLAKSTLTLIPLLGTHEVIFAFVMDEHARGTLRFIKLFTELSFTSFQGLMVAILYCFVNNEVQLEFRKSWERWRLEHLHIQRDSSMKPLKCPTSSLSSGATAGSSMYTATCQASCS
Outline: as §1

human GLP1R [3] = molecular target: T1, human GLP1R; assay: Luciferase reporter assay, HEK293/CRE-Luc/hGLP1R cells (Example 11); assay type: cell-based; set-up: engineered to express full-length human GLP1R, cynomolgus GLP1R; expressed in transfected cells; host or cells: HEK293/CRE-Luc; settings: Table 11; Experiment A
human GLP1R [4] = molecular target: T1, human GLP1R; assay: CRE-luciferase reporter assay, HEK293/Myc-hGLP1R/Cre-Luc (Example 9); assay type: cell-based; set-up: engineered to express full-length human GLP1R, cynomolgus GLP1R; expressed in transfected cells; host or cells: HEK293/CRE-Luc
Experimental: To test the activity of GLP1R agonist payloads and GLP1R agonist linker-payloads (LPs) in vitro, a cell-based cAMP responsive luciferase reporter assay was developed.
Cells were incubated overnight at 37° C. in 5% CO2. […] Plates were incubated for 5.5 h at 37° C. in 5% CO2. For end-point measurement, 100 μL/well of One-Glo reagent (Promega, #E6051) was added and plates were kept at room temperature for 5-10 minutes. Luciferase activity was measured on Envision Multilabel Plate Reader (Perkin Elmer) in Luminescent mode. The relative light units (RLU) values were obtained and the results were analyzed using nonlinear regression with GraphPad Prism software (GraphPad).

HEK293/CRE-Luc cells [5] = assay: Luciferase reporter assay, HEK293/CRE-Luc cells without hGLP1R (Example 11); assay type: cell-based, human; settings: Table 11; Experiment A; no hGLP1R expression
Outline: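 Counter-screen in HEK293 cells carrying CRE-driven firefly luciferase without hGLP1R; 3-fold serial dilutions of payloads or linker-payloads at 0.2% final DMSO, 4–6 h.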

[6] = HEK293/CRE-Luc cells without hGLP1R, payloads and linker-payloads
[7] = HEK293/CRE-Luc cells without hGLP1R, payloads and linker-payloads, read-out: EC50
[8] = ATDCs and references (Table 27)
[9] = highest RLU / RLU of untreated wells
[10] = relative to M2361 of the same experiment

Structure (SMILES) | S/N (HEK293/CRE-Luc cells [1]; [6]) | EC50 (HEK293/CRE-Luc cells [1]; [7]) [nM] | S/N (human GLP1R [2]; [9]) | EC50 (human GLP1R [2]) [nM] | Relative Potency (% M2361 EC50) (human GLP1R [2]; [10]) [%] | Relative Signal:Noise (% M2361) (human GLP1R [2]; [10]) [%] | EC50 (human GLP1R [3]) [nM] | HEK293/CRE-LUC/hGLP1R Relative Potency (% P8 EC50) (human GLP1R [3]) [%] | HEK293/CRE-LUC/hGLP1R S/N (human GLP1R [3]) | EC50 (HEK293/CRE-Luc cells [5]) [nM] | HEK293/CRE-LUC S/N (HEK293/CRE-Luc cells [5]) | other results
CCc1cc(OCCCCn2cc(COCCOCCOCCOCCOCCOCCOCCOCCN)nn2)ccc1-c1ccc(C[C@H](NC(=O)[C@H](CC(=O)O)NC(=O)[C@H](CO)NC(=O)[C@@H](NC(=O)[C@](C)(Cc2ccccc2F)NC(=O)[C@@H](NC(=O)CNC(=O)[C@H](Cc2nn[nH]n2)NC(=O)C(C)(C)C(=O)NCCc2cnc[nH]2)[C@@H](C)O)[C@@H](C)O)C(=O)N[C@@H](CCCc2cc(C)cc(C)c2)C(N)=O)cc1 [M3190] | 1.3 | > 200 | 74.5 | 0.0161 | 33.1 | 113.3 |  |  |  |  |  | S/N (HEK293/CRE-Luc cells [1]; HEK293/CRE-Luc cells without hGLP1R, ATDCs and references (Table 27)): 1.3; EC50 (HEK293/CRE-Luc cells [1]; HEK293/CRE-Luc cells without hGLP1R, ATDCs and references (Table 27), read-out: EC50): > 20 nM; EC50 (HEK293/CRE-Luc cells [1]; Table 28, reporter cells without GLP1R, read-out: HEK293/CRE-Luc EC50): > 200 nM; EC50 (HEK293/CRE-Luc cells [1]; Table 29, reporter cells without GLP1R, read-out: HEK293/CRE-Luc EC50): > 30 nM; Relative Potency (% M2361 EC50) (human GLP1R [2]; [8]): 44.0%; Relative Signal:Noise (% M2361) (human GLP1R [2]; [8]): 96.4%; S/N (human GLP1R [2]; [8]): 62.0
CCc1cc(OCCCCn2cc(COCCOCCOCCOCCOCCOCCOCCOCCN)nn2)ccc1-c1ccc(C[C@H](NC(=O)[C@H](CC(=O)O)NC(=O)[C@H](CO)NC(=O)[C@@H](NC(=O)C(C)(Cc2ccccc2F)NC(=O)[C@@H](NC(=O)CNC(=O)[C@H](Cc2nn[nH]n2)NC(=O)C(C)(C)C(=O)NCCc2cnc[nH]2)[C@@H](C)O)[C@@H](C)O)C(=O)N[C@@H](CCCc2cc(C)cc(C)c2)C(N)=O)cc1 (stereo partly drawn) [LP11, NH2-PEG8-triazole-P8] |  |  |  |  |  |  | 0.0161 | 33.1 | 74.5 | > 200 | 1.3 | HEK293/CRE-LUC/hGLP1R Relative Signal:Noise (% P8) (human GLP1R [3]): 113.3%; EC50 (human GLP1R [4]; Table 5C, read-out: GLP1R LUC EC50): 0.016 nM; EC50 (human GLP1R [4]; Table 9, […], read-out: HEK293/Myc-hGLP1R/Cre-Luc EC50): 0.016 nM
CCc1cc(OCCCCN)ccc1-c1ccc(C[C@H](NC(=O)[C@H](CC(=O)O)NC(=O)[C@H](CO)NC(=O)[C@@H](NC(=O)[C@](C)(Cc2ccccc2F)NC(=O)[C@@H](NC(=O)CNC(=O)[C@H](Cc2nn[nH]n2)NC(=O)C(C)(C)C(=O)NCCc2cnc[nH]2)[C@@H](C)O)[C@@H](C)O)C(=O)N[C@@H](CCCc2cc(C)cc(C)c2)C(N)=O)cc1 [P9, (8S,14S,17S,20S,23S,26S)-8-((2H-tetrazol-5-yl)methyl)-26-(((S)-1-(((S)-1-amino-5-(3,5-dimethylphenyl)-1-oxopentan-2-yl)amino)-3-(4′-(4-aminobutoxy)-2′-ethyl-[1,1′-biphenyl]-4-yl)-1-oxopropan-2-yl)carbamoyl)-17-(2-fluorobenzyl)-14,20-bis((R)-1-hydroxyethyl)-23-(hydroxymethyl)-1-(1H-imidazol-5-yl)-5,5,17-trimethyl-4,6,9,12,15,18,21,24-octaoxo-3,7,10,13,16,19,22,25-octaazaoctacosan-28-oic acid] ({Malonyl(2,2-Me2,histaminyl)}-[Ala(1H-tetrazol-5-yl)]GT[αMePhe(2-F)]TSD[Bip(2'-Et,4'-O(CH2)4NH2)][Nva(5-(3,5-Me2Ph))]-NH2) | 1.3 | > 200 | 75.2 | 0.00397 | 133.8 | 114.3 | 0.00397 | 133.8 | 75.2 | > 200 | 1.3 | EC50 (human GLP1R [4]; Table 9, 5.5 h, read-out: HEK293/Myc-hGLP1R/Cre-Luc EC50): 0.00332 nM
